Measurements taken from publication PMC2577671, “Evaluation of Dimebon in cellular model of Huntington's disease” (Molecular Neurodegeneration, 2008).

Key:
Assay in all cases: biochemical
Set-up in all cases: MDS Pharma Lead Profiling screen, binding assays, per cent inhibition, duplicate
Dopamine D3 = target: T1, Dopamine D3 (Homo sapiens, UniProt P35462)
T1 construct: gene DRD3
Method: (§1) The activity of Dimebon against selected set of biochemical targets was performed by MDS Pharma Services . The Dimebon was provided to MDS Pharma as dry powder, dissolved in DMSO and tested in 10 μM concentrations. The standard Lead Profiling + CYP450 screen was performed according to MDS Pharma specifications with additional custom-chosen targets added to the screen as indicated. To further understand potential mechanisms responsible for clinical effects of Dimebon, we evaluated Dimebon against a set of selected biochemical targets. Dimebon evaluation was performed by MDS Pharma Services . The standard Lead Profiling + CYP450 screen was performed with additional custom-selected targets added to the screen. The results of the screen obtained at 10 μM of Dimebon are provided as Additional File 3. […] Low affinity (50–60% inhibition) interactions were also observed for CYP450, 2C19 receptor, voltage-gated L-type Ca^2+ channel, Dopamine D4.2 receptor, and Serotonin 5-HT1 receptor. […] Supplementary file 1750-1326-3-15-S3.pdf: Additional file 3 The results of Dimebon screening against a selected set of biochemical targets. The complete results obtained by MDS Pharma with a selected list of biochemical targets using 10 μM of Dimebon as a probe. The Cat numbers refer to the MDS Pharma Services assay specification. The receptors and species are listed. Dimebon was tested at 10 μM concentratio in duplicate. The % inhibition by Dimebon is shown numerically and graphically for each receptor. Significant targets (defined as % inhibition > 50%) are highlighted in yellow. Click here for file

Bradykinin B1 = target: T2, Bradykinin B1 (Homo sapiens, UniProt P46663)
T2 construct: gene BDKRB1
Method: as §1

Dopamine D1 = target: T3, Dopamine D1 (Homo sapiens, UniProt P21728)
T3 construct: gene DRD1
Method: as §1

Adenosine A3 = target: T4, Adenosine A3 (Homo sapiens, UniProt P0DMS8)
T4 construct: gene ADORA3
Method: as §1

Serotonin 5-HT1B = target: T5, Serotonin 5-HT1B (Rattus norvegicus, UniProt P28564)
T5 construct: gene Htr1b
Method: as §1

Muscarinic M2 = target: T6, Muscarinic M2 (Homo sapiens, UniProt P08172)
T6 construct: gene CHRM2
Method: as §1

Glucocorticoid = target: T7, Glucocorticoid (Homo sapiens, UniProt P04150)
T7 construct: gene NR3C1
Method: as §1

Sigma 1 = target: T8, Sigma 1 (Homo sapiens, UniProt Q99720)
T8 construct: gene SIGMAR1
Method: as §1

Neuropeptide Y Y1 = target: T9, Neuropeptide Y Y1 (Homo sapiens, UniProt P25929)
T9 construct: gene NPY1R
Method: as §1

[1] = target: T10, Transporter, Dopamine (DAT) (Homo sapiens, UniProt Q01959)
T10 construct: gene SLC6A3
Method: as §1

Muscarinic M3 = target: T11, Muscarinic M3 (Homo sapiens, UniProt P20309)
T11 construct: gene CHRM3
Method: as §1

α2A-Adrenergic receptor = target: T12, α2A-Adrenergic receptor (Homo sapiens, UniProt P08913)
T12 construct: gene ADRA2A
Method: as §1

[2] = target: T13, Transporter, Serotonin (SERT) (Homo sapiens, UniProt P31645)
T13 construct: gene SLC6A4
Method: as §1

[3] = target: T14, Epidermal Growth Factor (EGF) (Homo sapiens, UniProt P00533)
T14 construct: gene EGFR
Method: as §1

Calcium Channel N-Type = target: T15, Calcium Channel N-Type (Rattus norvegicus, UniProt Q02294)
T15 construct: gene Cacna1b
Method: as §1

Adrenergic beta2 = target: T16, Adrenergic beta2 (Homo sapiens, UniProt P07550)
T16 construct: gene ADRB2
Method: as §1

Serotonin 5-HT4 = target: T17, Serotonin 5-HT4 (Cavia porcellus, UniProt O70528)
T17 construct: gene HTR4
Method: as §1

Sigma 2 = target: T18, Sigma 2 (Rattus norvegicus, UniProt Q5U3Y7)
T18 construct: gene Tmem97
Method: as §1

Serotonin 5-HT2B = target: T19, Serotonin 5-HT2B (Homo sapiens, UniProt P41595)
T19 construct: gene HTR2B
Method: as §1

Prostanoid EP4 = target: T20, Prostanoid EP4 (Homo sapiens, UniProt P35408)
T20 construct: gene PTGER4
Method: as §1

α1D-Adrenergic receptor = target: T21, α1D-Adrenergic receptor (Homo sapiens, UniProt P25100)
T21 construct: gene ADRA1D
Method: as §1

T12 sequence (P08913 whole entry): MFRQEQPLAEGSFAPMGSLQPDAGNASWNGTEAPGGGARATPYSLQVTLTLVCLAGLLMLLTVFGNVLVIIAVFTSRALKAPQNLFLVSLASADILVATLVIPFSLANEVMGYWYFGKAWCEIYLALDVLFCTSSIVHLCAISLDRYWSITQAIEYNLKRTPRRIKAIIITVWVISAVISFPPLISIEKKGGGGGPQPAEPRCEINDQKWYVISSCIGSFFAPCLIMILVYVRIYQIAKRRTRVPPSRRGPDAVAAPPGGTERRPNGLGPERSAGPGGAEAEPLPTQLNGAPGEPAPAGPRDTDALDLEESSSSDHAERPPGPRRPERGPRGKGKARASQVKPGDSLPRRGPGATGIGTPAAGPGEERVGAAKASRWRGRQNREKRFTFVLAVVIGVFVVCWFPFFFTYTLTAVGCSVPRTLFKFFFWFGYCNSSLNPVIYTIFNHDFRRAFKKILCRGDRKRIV
T20 sequence (P35408 whole entry): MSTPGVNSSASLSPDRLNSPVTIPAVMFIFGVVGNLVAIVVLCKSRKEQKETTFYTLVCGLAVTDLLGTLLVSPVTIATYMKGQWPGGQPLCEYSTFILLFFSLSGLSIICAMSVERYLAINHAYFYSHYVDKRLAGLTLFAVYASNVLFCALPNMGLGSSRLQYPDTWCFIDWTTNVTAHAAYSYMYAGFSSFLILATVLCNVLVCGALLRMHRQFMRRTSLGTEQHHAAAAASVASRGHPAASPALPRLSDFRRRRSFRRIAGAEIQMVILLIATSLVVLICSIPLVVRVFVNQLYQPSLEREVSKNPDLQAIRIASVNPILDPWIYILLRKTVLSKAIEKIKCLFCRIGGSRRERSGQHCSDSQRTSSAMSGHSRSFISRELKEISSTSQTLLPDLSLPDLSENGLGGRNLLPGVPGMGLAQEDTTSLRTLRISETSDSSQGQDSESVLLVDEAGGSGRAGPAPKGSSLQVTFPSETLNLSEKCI
T11 sequence (P20309 whole entry): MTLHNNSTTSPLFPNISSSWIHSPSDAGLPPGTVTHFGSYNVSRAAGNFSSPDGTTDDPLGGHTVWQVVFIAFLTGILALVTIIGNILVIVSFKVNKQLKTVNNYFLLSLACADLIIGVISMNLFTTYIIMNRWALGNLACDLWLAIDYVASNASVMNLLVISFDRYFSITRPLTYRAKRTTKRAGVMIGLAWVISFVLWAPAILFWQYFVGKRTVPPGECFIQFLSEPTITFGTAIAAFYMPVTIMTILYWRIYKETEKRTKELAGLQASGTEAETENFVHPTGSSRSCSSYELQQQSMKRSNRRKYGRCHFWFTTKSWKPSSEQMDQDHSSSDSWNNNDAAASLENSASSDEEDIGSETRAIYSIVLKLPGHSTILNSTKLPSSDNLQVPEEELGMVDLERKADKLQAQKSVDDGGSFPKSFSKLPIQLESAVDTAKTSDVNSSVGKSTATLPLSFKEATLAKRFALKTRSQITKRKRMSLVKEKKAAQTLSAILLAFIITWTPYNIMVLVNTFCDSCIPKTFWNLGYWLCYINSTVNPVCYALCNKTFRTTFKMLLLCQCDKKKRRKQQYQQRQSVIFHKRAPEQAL
T2 sequence (P46663 whole entry): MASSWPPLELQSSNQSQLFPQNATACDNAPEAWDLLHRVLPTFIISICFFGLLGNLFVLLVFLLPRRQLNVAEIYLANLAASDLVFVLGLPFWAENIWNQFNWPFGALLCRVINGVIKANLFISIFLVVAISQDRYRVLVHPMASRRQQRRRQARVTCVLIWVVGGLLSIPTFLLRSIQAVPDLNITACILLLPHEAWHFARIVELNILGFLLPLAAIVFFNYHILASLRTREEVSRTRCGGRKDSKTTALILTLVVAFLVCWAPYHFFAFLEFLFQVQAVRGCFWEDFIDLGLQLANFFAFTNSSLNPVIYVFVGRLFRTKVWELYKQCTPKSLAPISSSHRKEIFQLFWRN
T13 sequence (P31645 whole entry): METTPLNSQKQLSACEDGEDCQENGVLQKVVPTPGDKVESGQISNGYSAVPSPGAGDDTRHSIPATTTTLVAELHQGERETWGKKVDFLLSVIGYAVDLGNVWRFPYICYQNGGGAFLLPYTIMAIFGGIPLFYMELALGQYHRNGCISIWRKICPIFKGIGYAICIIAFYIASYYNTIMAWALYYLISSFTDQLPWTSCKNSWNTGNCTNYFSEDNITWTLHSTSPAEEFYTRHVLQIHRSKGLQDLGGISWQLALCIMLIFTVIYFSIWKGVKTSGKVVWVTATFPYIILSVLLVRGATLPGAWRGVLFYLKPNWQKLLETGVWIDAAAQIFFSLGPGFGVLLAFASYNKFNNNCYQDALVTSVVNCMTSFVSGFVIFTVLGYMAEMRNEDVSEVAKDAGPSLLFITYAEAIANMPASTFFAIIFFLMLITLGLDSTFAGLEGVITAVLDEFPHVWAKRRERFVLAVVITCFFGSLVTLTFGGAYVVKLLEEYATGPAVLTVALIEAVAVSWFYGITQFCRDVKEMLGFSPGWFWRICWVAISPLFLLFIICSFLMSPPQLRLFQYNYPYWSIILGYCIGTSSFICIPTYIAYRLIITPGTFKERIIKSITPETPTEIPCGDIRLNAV
T7 sequence (P04150 whole entry): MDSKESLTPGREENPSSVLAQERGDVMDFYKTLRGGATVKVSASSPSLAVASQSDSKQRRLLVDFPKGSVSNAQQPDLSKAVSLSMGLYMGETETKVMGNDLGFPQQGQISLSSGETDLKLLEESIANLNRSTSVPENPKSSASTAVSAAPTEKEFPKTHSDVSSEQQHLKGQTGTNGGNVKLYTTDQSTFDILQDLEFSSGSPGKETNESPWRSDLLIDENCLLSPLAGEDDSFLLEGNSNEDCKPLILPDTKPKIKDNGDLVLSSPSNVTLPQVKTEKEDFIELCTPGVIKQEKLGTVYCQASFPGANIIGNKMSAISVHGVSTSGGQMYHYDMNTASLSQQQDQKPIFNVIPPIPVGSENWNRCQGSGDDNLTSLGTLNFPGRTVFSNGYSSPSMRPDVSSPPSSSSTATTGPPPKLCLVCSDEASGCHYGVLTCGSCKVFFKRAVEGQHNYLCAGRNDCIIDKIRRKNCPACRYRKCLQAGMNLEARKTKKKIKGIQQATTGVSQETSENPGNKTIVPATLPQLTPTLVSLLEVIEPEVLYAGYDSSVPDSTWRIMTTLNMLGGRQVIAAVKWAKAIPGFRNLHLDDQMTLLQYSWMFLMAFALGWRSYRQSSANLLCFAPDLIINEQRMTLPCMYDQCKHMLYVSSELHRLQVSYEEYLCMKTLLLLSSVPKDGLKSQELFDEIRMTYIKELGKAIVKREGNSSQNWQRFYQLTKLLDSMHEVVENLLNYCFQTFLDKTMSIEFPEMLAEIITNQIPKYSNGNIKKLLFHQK
T18 sequence (Q5U3Y7 whole entry): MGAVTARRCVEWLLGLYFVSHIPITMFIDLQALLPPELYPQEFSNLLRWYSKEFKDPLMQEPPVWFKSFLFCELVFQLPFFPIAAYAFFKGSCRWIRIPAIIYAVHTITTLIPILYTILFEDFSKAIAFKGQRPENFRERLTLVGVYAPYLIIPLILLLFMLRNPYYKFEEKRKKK
T9 sequence (P25929 whole entry): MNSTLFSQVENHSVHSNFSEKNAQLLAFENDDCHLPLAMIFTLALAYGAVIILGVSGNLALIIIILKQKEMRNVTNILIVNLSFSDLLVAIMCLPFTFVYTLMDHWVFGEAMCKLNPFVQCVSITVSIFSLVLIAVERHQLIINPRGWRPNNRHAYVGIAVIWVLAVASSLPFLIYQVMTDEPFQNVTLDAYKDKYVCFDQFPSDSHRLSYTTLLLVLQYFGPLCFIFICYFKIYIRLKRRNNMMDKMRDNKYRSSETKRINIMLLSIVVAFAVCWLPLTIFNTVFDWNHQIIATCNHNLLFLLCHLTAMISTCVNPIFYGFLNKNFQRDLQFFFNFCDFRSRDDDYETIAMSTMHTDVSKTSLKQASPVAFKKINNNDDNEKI
T4 sequence (P0DMS8 whole entry): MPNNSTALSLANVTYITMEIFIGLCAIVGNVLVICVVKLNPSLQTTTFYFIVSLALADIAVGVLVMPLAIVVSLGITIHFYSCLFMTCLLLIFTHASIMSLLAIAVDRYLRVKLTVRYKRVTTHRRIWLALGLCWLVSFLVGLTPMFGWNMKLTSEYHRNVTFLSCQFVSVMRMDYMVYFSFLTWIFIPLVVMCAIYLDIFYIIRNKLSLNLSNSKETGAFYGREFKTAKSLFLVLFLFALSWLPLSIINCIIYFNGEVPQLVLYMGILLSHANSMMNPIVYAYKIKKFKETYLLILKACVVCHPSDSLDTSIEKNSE
T6 sequence (P08172 whole entry): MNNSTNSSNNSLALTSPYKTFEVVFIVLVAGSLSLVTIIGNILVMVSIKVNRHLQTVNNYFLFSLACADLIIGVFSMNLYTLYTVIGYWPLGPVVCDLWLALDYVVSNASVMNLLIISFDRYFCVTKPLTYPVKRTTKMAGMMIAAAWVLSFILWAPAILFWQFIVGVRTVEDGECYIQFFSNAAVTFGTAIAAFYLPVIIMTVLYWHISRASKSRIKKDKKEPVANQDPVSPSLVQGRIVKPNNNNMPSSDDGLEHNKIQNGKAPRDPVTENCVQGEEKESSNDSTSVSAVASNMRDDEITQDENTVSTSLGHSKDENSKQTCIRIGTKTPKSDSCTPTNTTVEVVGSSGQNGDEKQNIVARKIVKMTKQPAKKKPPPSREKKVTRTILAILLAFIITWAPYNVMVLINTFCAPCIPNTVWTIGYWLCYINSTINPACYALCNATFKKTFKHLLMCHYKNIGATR
T8 sequence (Q99720 whole entry): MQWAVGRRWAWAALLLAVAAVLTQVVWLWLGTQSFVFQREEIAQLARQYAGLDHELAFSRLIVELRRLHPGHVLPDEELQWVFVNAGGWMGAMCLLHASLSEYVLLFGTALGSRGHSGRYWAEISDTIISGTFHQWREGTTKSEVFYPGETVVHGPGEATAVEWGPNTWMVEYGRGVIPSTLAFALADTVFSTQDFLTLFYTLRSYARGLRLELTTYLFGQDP

Compound `Cc1ccc2c(c1)c1c(n2CCc2ccc(C)nc2)CCN(C)C1` [Dimebon, 2,3,4,5-Tetrahydro-2,8-dimethyl-5-(2-(6-methyl-3-pyridyl)ethyl)-1H-pyrido(4,3-b)indole] has an inhibition at 10 µM (Dopamine D3) of 73%, an inhibition at 10 µM (Bradykinin B1) of -9% and an inhibition at 10 µM (Dopamine D1) of 70%. The inhibition at 10 µM (Adenosine A3) was 6%, the inhibition at 10 µM (Serotonin 5-HT1B) was 48% and the inhibition at 10 µM (Muscarinic M2) was 8%. For the same compound, the inhibition at 10 µM (Glucocorticoid) was 3%, the inhibition at 10 µM (Sigma 1) was 28% and the inhibition at 10 µM (Neuropeptide Y Y1) was 4%. It also gave an inhibition at 10 µM [1] of 13%, an inhibition at 10 µM (Muscarinic M3) of 7% and an inhibition at 10 µM (α2A-Adrenergic receptor) of 97%. The inhibition at 10 µM [2] was -7%, the inhibition at 10 µM [3] was 1% and the inhibition at 10 µM (Calcium Channel N-Type) was 0%. The inhibition at 10 µM (Adrenergic beta2) was 14%, the inhibition at 10 µM (Serotonin 5-HT4) was 17% and the inhibition at 10 µM (Sigma 2) was 22%. For the same compound, the inhibition at 10 µM (Serotonin 5-HT2B) was 74%, the inhibition at 10 µM (Prostanoid EP4) was 1% and the inhibition at 10 µM (α1D-Adrenergic receptor) was 95%.
